From ChEMBL document CHEMBL1122771, “Effects of volume and surface property in hydrolysis by acetylcholinesterase. The trimethyl site” (J Med Chem, 1984)

Assays:
[1] = Compound was tested for hydrolysis by acetylcholinesterase and the kinetic constant (kcat) which is a first-order rate constant was determined
acetylcholinesterase [2] = test: Compound was tested for hydrolysis by acetylcholinesterase and the kinetic constant, (Km) an apparent dissociation constant, and related to the enzyme's affinity for the substrate was reported; format: ADME
acetylcholinesterase [3] = test: in vitro
Description: Compound was tested for hydrolysis by acetylcholinesterase and the kinetic constant, (Km) an apparent dissociation constant, and related to the enzyme's affinity for the substrate was reported.

Row | SMILES | k cat [1] | Km (acetylcholinesterase [2]) | Km (acetylcholinesterase [3]) | Km (acetylcholinesterase [3]; acetylcholinesterase)
1 | CC(=O)OCCS(C)(=O)=O | 11 s⁻¹ | 6.2 mM | – | –
2 | CC(=O)OCCC(C)(C)C | 66 s⁻¹ | 5.3 mM | – | –
3 | CCCCOC(C)=O [ACETIC ACID BUTYL ESTER] | 36 s⁻¹ | – | 13 mM | –
4 | CC(=O)OCC[N+](C)(C)C [ACETYLCHOLINE] | 160 s⁻¹ | 0.33 mM | – | –
5 | CC(=O)OCCCl | 3400 s⁻¹ | – | – | 14 mM
6 | CC(=O)OCCC(C)C | 3400 s⁻¹ | – | – | 3.6 mM
7 | CC(=O)OCC[S+](C)C.[Br-] | 7700 s⁻¹ | – | – | 0.33 mM
8 | CCOC(C)=O [ETHYL ACETATE] | 2900 s⁻¹ | – | – | –
9 | CC(=O)OCC[Si](C)(C)C | 5700 s⁻¹ | – | – | 3.5 mM
10 | CC(=O)OCCBr | 4500 s⁻¹ | – | – | 7.5 mM
11 | CC(=O)OCC[N+](C)(C)[O-] | 4500 s⁻¹ | – | – | 18 mM
12 | CSCCOC(C)=O | 3500 s⁻¹ | – | – | 15 mM
13 | CC(=O)OCC[S+](C)[O-] (stereo not given) | 3800 s⁻¹ | – | – | 16 mM
